Holding throughout (type): in vitro ADME
Data set [1] in a line: glucuronidation in liver microsomes from humans. The settings on record: human liver microsomes, UDPGA, 37° C. for 60 min. As for the experimental part: All liver microsomal and cytosolic fractions were prepared using the following procedure. Thawed livers were homogenized with 2 volumes of 50 mM Tris-buffer (pH 7.5) containing 1.15% KCl. For microsomal and cytosolic preparations, the homogenate was centrifuged for 20 min at 9,000×g and the resulting supernatant was centrifuged for 60 min at 105,000×g. The resulting cytosolic fractions were re-centrifuged at 105,000×g for 60 min. Fractions of cytosol were aliquoted into small tubes and stored at −70° C. Subsequently, the microsomal pellets were washed with 10 mM EDTA containing 1.15% KCl and were centrifuged at 105,000×g for 60 min. […] Protein concentrations were determined by a modified Lowry assay (Smith et al., 1985). The specific cytochrome P450 content in each microsomal preparation was measured as described by Omura and Sato, J. Biol. Chem. 239, 2370-2378 (1964).
The typical reaction mixture (500 μl) containing 10 mM MgCl2, 2% glycerol, 0.02% lubrol PX, 3 mM UDPGA, 1 mg liver microsomes, 50 mM bis-tris propane buffer (pH 8.5) and ˜10 or 25 μM compound (in 15 μl methanol) was incubated at 37° C. for 30-60 min. After incubation, the reactions were terminated by the addition of four volumes of acetonitrile and processed and analyzed by HPLC as mentioned above.

A short description of data set [2]: metabolism in primary cultures of rat hepatocytes. Conditions: after 6 hr. As for the experimental part:
Hepatocytes were harvested from male Sprague-Dawley rat livers or human livers and cultured on a matrigel support and treated with 0.1 μM dexamethasone or 50 μM rifampicin, respectively, for 48 hr prior to the addition of the test compounds. A 2.5 mM stock solution of [^14C]2-(R)-(1-(R)-(3,5-bis(trifluoromethyl)-phenyl)ethoxy)-3-(S)-(4-fluoro)phenyl-4-(3-(5-oxo-1H,4H-1,2,4-triazolo)methylmorpholine, [^14C]M-1 or [^14C]M-2 in DMSO was added to the plates such that the final concentration of test compound was 25 μM and DMSO was 1% (v/v). The cultures were incubated for 4, 6 or 24 hr for rat hepatocytes and 48 hr for human hepatocytes. The incubation mixtures (500 μL) contained 10 μM of test compound, 100 mM phosphate buffer pH 7.4, NADPH-regenerating system, microsomes containing expressed CYP isoforms (CYP1A2, CYP2A6, CYP2B6, CYP2C8, CYP2C9, CYP2C19, CYP2D6, CYP2E1 or CYP3A4) and cytochrome P-450 reductase. The reactions were initiated by adding NADP and proceeded at 37° C. for 15-45 min. […]
Method A was conducted on a Shimadzu HPLC system (Shimadzu Scientific Instruments Inc., Columbia Md.). The parent compounds and their metabolites were monitored directly using a radiometric detector (INUS Systems Inc. Tampa, Fla.) and Ultima-Flow M (Packard Instrument Co., Meridan Conn.) as scintillant at a flow rate of 3 mL/min. […]

The target in data set [3] is T1, recombinant human CYP isozymes (Homo sapiens, UniProt P08684).
T1 construct: host or cells: Baculovirus-infected sf21 insect cells (microsomes)
The experiment in a line: metabolism by microsomes containing recombinant human CYP isozymes. Conditions: parent to M-1 (N-dealkylation); M-1 to M-2 (oxidation); M-3 to M-4 (hydroxylation); M-2 to M-5 (conversion). How it is done:
Hepatocytes were harvested from male Sprague-Dawley rat livers or human livers and cultured on a matrigel support and treated with 0.1 μM dexamethasone or 50 μM rifampicin, respectively, for 48 hr prior to the addition of the test compounds. A 2.5 mM stock solution of [^14C]2-(R)-(1-(R)-(3,5-bis(trifluoromethyl)-phenyl)ethoxy)-3-(S)-(4-fluoro)phenyl-4-(3-(5-oxo-1H,4H-1,2,4-triazolo)methylmorpholine, [^14C]M-1 or [^14C]M-2 in DMSO was added to the plates such that the final concentration of test compound was 25 μM and DMSO was 1% (v/v). The cultures were incubated for 4, 6 or 24 hr for rat hepatocytes and 48 hr for human hepatocytes. The incubation mixtures (500 μL) contained 10 μM of test compound, 100 mM phosphate buffer pH 7.4, NADPH-regenerating system, microsomes containing expressed CYP isoforms (CYP1A2, CYP2A6, CYP2B6, CYP2C8, CYP2C9, CYP2C19, CYP2D6, CYP2E1 or CYP3A4) and cytochrome P-450 reductase. The reactions were initiated by adding NADP and proceeded at 37° C. for 15-45 min. Acetonitrile extracts from microsomal and hepatocyte incubates were dissolved in 50% aqueous methanol and fractionated by HPLC. The separation was accomplished on a Zorbax RX C8 analytical column (5 μm, 4.6×250 mm). The mobile phase consisted of solvent A (10 mM ammonium acetate in water) and solvent B (7.3 mM ammonium acetate in 92.7% acetonitrile and 7.3% methanol. The column was eluted by a linear gradient from 35 to 80% B over 40 min at a flow rate of 1 mL/min. Fractions of major metabolites were subjected to LC-MS/MS analysis. Further purification was done using isocratic conditions prior to NMR analysis.
The incubation mixtures (500 μL) contained 10 or 25 μM of test compounds, 100 mM phosphate buffer pH 7.4, NADPH-regenerating system (5 mM glucose-6-phosphate, 1 mM NADP and 0.7 I.U/mL glucose 6-phosphate dehydrogenase), 0.5 to 2 mg/mL liver microsomal protein prepared from rats and humans or microsomes from Baculovirus-infected sf21 cells containing 20 to 200 pmol expressed CYP isoforms (CYP1A2, CYP2A6, CYP2B6, CYP2C8, CYP2C9, CYP2C19, CYP2D6, CYP2E1 or CYP3A4) and cytochrome P450 reductase. Stock solutions of the substrates in methanol were made such that final concentration of methanol in the reaction mixture was 3%. The reactions were initiated by adding 50 μL of 10 mM NADP and proceeded at 37° C. for 15-45 min. After incubation, the reactions were terminated by the addition of four volumes of acetonitrile. The suspensions were mixed vigorously and centrifuged at 3000×g for 5 min. The supernatants were dried and redissolved in 50% methanol for HPLC analysis using method A described below.

T1 sequence (P08684 2-503 limits assumed): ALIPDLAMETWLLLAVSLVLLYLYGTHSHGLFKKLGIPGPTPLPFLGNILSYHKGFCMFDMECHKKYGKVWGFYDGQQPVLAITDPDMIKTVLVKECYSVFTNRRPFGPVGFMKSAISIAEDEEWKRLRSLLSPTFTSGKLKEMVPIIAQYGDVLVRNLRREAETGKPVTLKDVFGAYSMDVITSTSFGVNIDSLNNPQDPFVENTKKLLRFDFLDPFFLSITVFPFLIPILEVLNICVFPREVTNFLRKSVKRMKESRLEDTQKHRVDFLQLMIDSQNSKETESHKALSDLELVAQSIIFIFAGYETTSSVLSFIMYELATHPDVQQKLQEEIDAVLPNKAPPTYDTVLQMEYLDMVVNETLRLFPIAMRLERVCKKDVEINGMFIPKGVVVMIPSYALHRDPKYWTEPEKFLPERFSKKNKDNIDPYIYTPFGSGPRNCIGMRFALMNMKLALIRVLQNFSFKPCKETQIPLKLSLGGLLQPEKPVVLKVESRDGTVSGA

Regarding `C[C@@H](O[C@H]1OCCN[C@H]1c1ccc(F)cc1)c1cc(C(F)(F)F)cc(C(F)(F)F)c1` [Metabolite M-1, (2R,3S)-2-[(1R)-1-[3,5-bis(trifluoromethyl)phenyl]ethoxy]-3-(4-fluorophenyl)morpholine], in data set [1], the “conversion to the corresponding glucuronide” value was about 20%. In addition, in data set [2], the “metabolism in rat hepatocyte cultures” value is “extensively metabolized”. In addition, in data set [3], the “CYP isozyme primarily responsible for the metabolic step” value is given as “CYP3A4”.

The record behind these values is patent US6727244B2, “Mammalian metabolites of a tachykinin receptor antagonist” (Merck & Co., Inc., priority 2000, dated 2004).
